Data: US20050245527A1, “Nitrogen containing heterocyclic compounds and medicines containing the same” (priority 2002, published 2005)

How the values were obtained:
anesthetized dogs = test: Evaluation of cardiovascular dynamics and electrocardiogram in anesthetized dogs; assay type: in vivo, dog; conditions: single administration; for HR / LVdP/dt / PQ interval / QRS interval / QTc interval / mAP: percent change vs value prior to administration
Description: <Evaluation of Cardiovascular Dynamics and Electrocardiogram in Anesthetized Dogs> Method Anesthetized dogs were used for the experiment. After isolating the […], a microchip pressure transducer catheter was inserted therein, and the tip was situated near the aortic orifice and in the left ventricle, for measurement of the arterial pressure (AP) and left ventricular pressure (LVP). The LVP was differentiated using a differentiation unit, and the maximum value of the first derivative of the left ventricular pressure ([…] used as the index of the […] contractility. The heart rate (HR) was measured using an instantaneous heart rate counter, with the LVP waveforms as the trigger. A needle electrode was fixed to the right anterior limb and left and right posterior limbs, and a standard II-lead electrocardiogram was taken. The parameters were recorded on a recording sheet. The test substance was administered through the venous catheter inserted in the femoral vein. Administration of Test Substance and Recording Single Administration: The test substance was administered through the catheter for 1 minute. The electrocardiogram was recorded at 2 minutes after administration, and the change in the cardiovascular dynamic was recorded continuously for 10 minutes after the administration. After 10 minutes, the dose was increased and the recording was repeated. Continuous Intravenous Infusion: The test substance was administered through the catheter for a period of one minute, and then a sustained dose was administered by continuous intravenous infusion. The electrocardiogram was recorded at the 5 and 10 minute points, and the change in cardiovascular dynamic was recorded continuously for 10 minutes from the start of administration. After 10 minutes, the dose was increased and the recording was repeated. Analysis The HR, mean arterial pressure (mAP), LVdP/dtmax and electrocardiogram parameters (RR interval, PQ interval, QRS interval, QT interval) were read from the recording sheet. The QT interval was heart rate-corrected and represented as the QTc interval.

[1] = test system: left saphenous nerve of rats (ectopic firing); test: Inhibition of ectopic firing; assay type: in vivo; conditions: Rattus norvegicus, iv; rats with cut left saphenous nerve, urethane anesthesia, compound via catheter in right cervical vein, number of firings in 10 seconds; read-out: Inhibition of ectopic firing (ID50)
Experimental: <Inhibition of Ectopic Firing>
(1) The inhibitory effect on ectopic firing was evaluated by the following method, with reference to Burchiel, K J., Exp. Neurol., 102, 249-253 (1988).
(2) The left saphenous nerve of rats, in which ectopic firing was observed, was cut near the knee joint, and approximately 3 mm was cut off to avoid reattachment of the cut nerve. After more than a week, the left saphenous nerve was exposed under urethane (1 g/kg body weight) anesthesia, and the proximal part up to approximately 1 cm from the cut site was detached from the surrounding tissue. A catheter was inserted in the right cervical vein beforehand for administration of the compound.
(3) The detached nerve was placed on a platinum hook electrode and wetted with liquid paraffin to avoid drying of the nerve. The electrode was connected to a microelectrode amplifier, and the change in potential was recorded from an oscilloscope through an A/D converter onto a computer. The recorded nerve firing was evaluated based on the number of firings in 10 seconds, using analyzing software (AcqKnowledge).

sodium channels = assay type: cell-based; conditions: read-out: IC50 (μM), sodium channel-inhibiting activity; rat fetal cultured hippocampal neurons, SBFI fluorescence in the presence of 4-aminopyridine, 5 minutes after addition, 1 μM tetrodotoxin = 100%

SMILES | ED50 [1] | IC50 (sodium channels) | also measured
CN(C)CCC=C1c2ccccc2CCc2ccccc21 [Amitriptyline] | – | – | HR (anesthetized dogs; dose 0.3 mg/kg weight): −2.9%; LVdP/dt (anesthetized dogs; dose 0.3 mg/kg weight): −5.9%; PQ interval (anesthetized dogs; dose 0.3 mg/kg weight): −1.5%; QRS interval (anesthetized dogs; dose 0.3 mg/kg weight): 0.4%; QTc interval (anesthetized dogs; dose 0.3 mg/kg weight): 1.9%; mAP (anesthetized dogs; dose 0.3 mg/kg weight): −0.9%; HR (anesthetized dogs; dose 1 mg/kg weight): −4.0%; LVdP/dt (anesthetized dogs; dose 1 mg/kg weight): −21.7%; PQ interval (anesthetized dogs; dose 1 mg/kg weight): 8.7%; QRS interval (anesthetized dogs; dose 1 mg/kg weight): 15.4%; QTc interval (anesthetized dogs; dose 1 mg/kg weight): 13.1%; mAP (anesthetized dogs; dose 1 mg/kg weight): −25.4%; effects on the cardiovascular system (anesthetized dogs; summary of Tables 4 to 8): exhibited effects on the cardiovascular system
O=c1[nH]c2ccccc2nc1CN1CCC(COc2ccccc2F)CC1 [Example 204, 3-[4-(2-Fluorophenoxymethyl)piperidino]methyl-1H-quinoxalin-2-one] | 0.5 to 1 mg/kg | 8.1 µM | –
COc1ccccc1OCC1CCN(Cc2nc3ccccc3[nH]c2=O)CC1 [Example 205, 3-[4-(2-Methoxyphenoxymethyl)piperidino]methyl-1H-quinoxalin-2-one] | 0.5 to 1 mg/kg | 2.6 µM | –
O=C(Cc1ccccc1F)C1CCCN(Cc2ncc[nH]c2=O)C1 (stereo not drawn) [Example 208, 3-[3-[2-(2-Fluorophenyl)acetyl]piperidino]methyl-1H-pyrazin-2-one] | 0.5 to 1 mg/kg | 5.5 µM | –
Cc1ccccc1OCC1(O)CCN(Cc2ncc[nH]c2=O)CC1 [Example 210, 3-[4-Hydroxy-4-(2-methylphenoxymethyl)piperidino]methyl-1H-pyrazin-2-one] | 0.5 to 1 mg/kg | 6 µM | –
Cc1ccc(-c2ccccc2)n1CC1(O)CCN(Cc2ncc[nH]c2=O)CC1 [Example 212, 3-[4-Hydroxy-4-(2-methyl-5-phenylpyrrol-1-yl)methyl-piperidino]methyl-1H-pyrazin-2-one] | 0.5 to 1 mg/kg | 6.1 µM | –
O=C(c1ccccc1F)N(C(=O)c1ccccc1F)C1(O)CCN(Cc2ncc[nH]c2=O)CC1 [Example 214, 2-Fluoro-N-(2-fluorobenzoyl)-N-[4-hydroxy-1-(3-oxo-3,4-dihydro-2-pyrazinylmethyl)piperidin-4-yl]benzamide] | 0.5 to 1 mg/kg | 8.7 µM | –
Cc1ccccc1CCC1(O)CCN(Cc2ncc[nH]c2=O)CC1 [Example 222, 3-[4-Hydroxy-4-[2-(2-methylphenyl)ethyl]piperidino]methyl-1H-pyrazin-2-one] | 0.5 to 1 mg/kg | 2.5 µM | –
O=c1[nH]ccnc1CN1CCC(F)(COc2ccccc2F)CC1 [Example 223, 3-[4-Fluoro-4-(2-fluorophenoxymethyl)piperidino]methyl-1H-pyrazin-2-one] | 0.5 to 1 mg/kg | 6 µM | –
O=c1[nH]ccnc1CN1CCC(CCc2ccccc2F)(COc2ccccc2F)CC1 [Example 224, 3-[4-(2-Fluorophenoxymethyl)-4-[2-(2-fluorophenyl)ethyl]piperidino]methyl-1H-pyrazin-2-one] | 0.5 to 1 mg/kg | 1.6 µM | –
Cc1ccccc1OCC1(CCc2ccccc2F)CCN(Cc2ncc[nH]c2=O)CC1 [Example 225, 3-[4-[2-(2-Fluorophenyl)ethyl]-4-(2-methylphenoxymethyl)piperidino]methyl-1H-pyrazin-2-one] | 0.5 to 1 mg/kg | 1.6 µM | –
O=c1cncc(CCN2CCC(COc3ccccc3Cl)CC2)[nH]1 [Example 235, 6-[2-[4-(2-Chlorophenoxymethyl)piperidino]ethyl]-1H-pyrazin-2-one] | < 0.5 mg/kg | 5 µM | –
Cc1ccccc1OCC1CCN(CCc2cncc(=O)[nH]2)CC1 [Example 236, 6-[2-[4-(2-Methylphenoxymethyl)piperidino]ethyl]-1H-pyrazin-2-one] | < 0.5 mg/kg | 7 µM | –
O=c1cncc(CCN2CCC(COc3ccc(F)cc3F)CC2)[nH]1 [Example 239, 6-[2-[4-(2,4-Difluorophenoxymethyl)piperidino]ethyl]-1H-pyrazin-2-one] | 0.5 to 1 mg/kg | 9.1 µM | –
O=c1cncc(CCN2CCC(COc3cc(F)ccc3F)CC2)[nH]1 [Example 241, 6-[2-[4-(2,5-Difluorophenoxymethyl)piperidino]ethyl]-1H-pyrazin-2-one] | 0.5 to 1 mg/kg | 5 µM | –
O=c1cncc(CCN2CCC(CCc3ccccc3F)CC2)[nH]1 [Example 243, 6-[2-[4-[2-(2-Fluorophenyl)ethyl]piperidino]ethyl]-1H-pyrazin-2-one] | < 0.5 mg/kg | 5.7 µM | –
Cc1ccc(-c2ccccc2)n1CC1(O)CCN(Cc2ccc[nH]c2=O)CC1 [Example 251, 3-[4-Hydroxy-4-(2-methyl-5-phenylpyrrol-1-yl)methyl-piperidino]methyl-1H-pyridin-2-one] | 0.5 to 1 mg/kg | 8.4 µM | –
O=c1[nH]cccc1CN1CCC(O)(COc2ccccc2F)CC1 [Example 253, 3-[4-Hydroxy-4-(2-fluorophenoxymethyl)piperidino]methyl-1H-pyridin-2-one] | < 0.5 mg/kg | 9.2 µM | –
O=c1[nH]cc(Cl)cc1CN1CCC(O)(COc2ccccc2F)CC1 [Example 254, 5-Chloro-3-[4-hydroxy-4-(2-fluorophenoxymethyl)piperidino]methyl-1H-pyridin-2-one] | 0.5 to 1 mg/kg | 8.9 µM | –
O=c1[nH]cccc1CN1CCC(CO)(CCc2ccccc2)CC1 [Example 256, 3-[4-Hydroxymethyl-4-(2-phenylethyl)piperidino]methyl-1H-pyridin-2-one] | 0.5 to 1 mg/kg | 5.8 µM | –
O=c1[nH]cccc1CN1CCC(O)(C#Cc2ccccc2F)CC1 [Example 258, 3-[4-Hydroxy-4-[(2-fluorophenyl)ethynyl]piperidino]methyl-1H-pyridin-2-one] | < 0.5 mg/kg | 4.2 µM | –
CSc1ccccc1CC(=O)C1CCN(Cc2ncc[nH]c2=O)CC1 [Example 343, 3-[4-[2-[2-(Methylthio)phenyl]acetyl]piperidino]methyl-1H-pyrazin-2-one] | < 0.5 mg/kg | 3.5 µM | –
O=C(Cc1ccccc1C(F)(F)F)C1CCN(Cc2ncc[nH]c2=O)CC1 [Example 344, 3-[4-[2-[2-(Trifluoromethyl)phenyl]acetyl]piperidino]methyl-1H-pyrazin-2-one] | < 0.5 mg/kg | 4.4 µM | –
CCOc1ccccc1CC(=O)C1CCN(Cc2ncc[nH]c2=O)CC1 [Example 347, 3-[4-[2-(2-Ethoxyphenyl)acetyl]piperidino]methyl-1H-pyrazin-2-one] | < 0.5 mg/kg | 3 µM | –
CC(c1ncc[nH]c1=O)N1CCC(C(=O)Cc2ccccc2F)CC1 (stereo not drawn) [Example 350, 3-[1-[4-[2-(2-Fluorophenyl)acetyl]piperidino]ethyl]-1H-pyrazin-2-one] | < 0.5 mg/kg | 6 µM | –
CC1(C(=O)Cc2ccccc2F)CCN(Cc2ncc[nH]c2=O)CC1 [Example 365, 3-[4-[2-(2-Fluorophenyl)acetyl]-4-methylpiperidino]methyl-1H-pyrazin-2-one] | < 0.5 mg/kg | 3.4 µM | –
CC1(C(=O)Cc2ccccc2C(F)(F)F)CCN(Cc2ncc[nH]c2=O)CC1 [Example 373, 3-[4-Methyl-4-[2-[2-(trifluoromethyl)phenyl]acetyl]piperidino]methyl-1H-pyrazin-2-one] | < 0.5 mg/kg | 1.6 µM | –
O=C(Cc1c(F)cccc1C(F)(F)F)C1CCN(Cc2ncc[nH]c2=O)CC1 [Example 376, 3-[4-[2-[2-Fluoro-6-(trifluoromethyl)phenyl]acetyl]piperidino]methyl-1H-pyrazin-2-one] | < 0.5 mg/kg | 1.1 µM | –
CC(c1ncc[nH]c1=O)N1CCC(C(=O)Cc2ccccc2C(F)(F)F)CC1.O=C(O)C(=O)O (stereo not drawn) [Example 394, 3-[1-[4-[2-[2-(Trifluoromethyl)phenyl]acetyl]piperidino]ethyl]-1H-pyrazin-2-one oxalate] | < 0.5 mg/kg | 2.8 µM | –
